From PubChem BioAssay (NCI)
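All cell lines were grown in 96-well plates and treated with compound for 48 hours. At the TGI there is no net growth.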

Tests used:
Assay in all cases: inhibition of tumour cell growth, NCI panel, 48 h
[1] = tested on: CAKI-1 renal
[2] = tested on: HCT-15 colon
[3] = tested on: MDA-N
[4] = tested on: TK-10 renal
[5] = tested on: OVCAR-4 ovarian
[6] = tested on: NCI-H226 lung
[7] = tested on: U251 CNS
[8] = tested on: HOP-92 NSCLC
[9] = tested on: OVCAR-3 ovarian
[10] = tested on: MOLT-4 leukemia
[11] = tested on: MCF7 breast
[12] = tested on: SR leukemia
[13] = tested on: NCI-H522 lung
[14] = tested on: SK-MEL-2 melanoma
[15] = tested on: ACHN renal
[16] = tested on: SN12C renal
[17] = tested on: 786-0 renal
[18] = tested on: UO-31 renal
[19] = tested on: IGROV1 ovarian
[20] = tested on: SW-620 colon
[21] = tested on: SK-MEL-28 melanoma
[22] = tested on: K-562 leukemia
[23] = tested on: SNB-19 CNS
[24] = tested on: NCI/ADR-RES ovarian
[25] = tested on: SF-295 CNS
[26] = tested on: NCI-H23 lung
[27] = tested on: RXF 393 renal
[28] = tested on: PC-3 prostate
[29] = tested on: EKVX NSCLC
[30] = tested on: HS 578T breast
[31] = tested on: A498 renal
[32] = tested on: SK-MEL-5 melanoma
[33] = tested on: NCI-H460 lung
[34] = tested on: MALME-3M melanoma
[35] = tested on: SF-539 CNS
[36] = tested on: BT-549 breast
[37] = tested on: HCC-2998 colon
[38] = tested on: M14 melanoma
[39] = tested on: HL-60(TB) leukemia
[40] = tested on: RPMI-8226 leukemia
[41] = tested on: HT29 colon
[42] = tested on: LOX IMVI melanoma
[43] = tested on: KM12 colon
[44] = tested on: COLO 205 colon
[45] = tested on: SF-268 CNS
[46] = tested on: MDA-MB-231 breast
[47] = tested on: UACC-257 melanoma
[48] = tested on: A549 NSCLC
[49] = tested on: DU-145 prostate
[50] = tested on: OVCAR-8 ovarian
[51] = tested on: MDA-MB-435
[52] = tested on: HOP-62 NSCLC
[53] = tested on: CCRF-CEM leukemia
[54] = tested on: UACC-62 melanoma
[55] = tested on: HCT-116 colon
[56] = tested on: OVCAR-5 ovarian
[57] = tested on: T-47D breast
[58] = tested on: SK-OV-3 ovarian
[59] = tested on: SNB-75 CNS

Compound: CCOC(=O)c1ncn(CCc2ccc(Cl)cc2)c1C
- TGI [1]: > 100 µM
- TGI [2]: > 100 µM
- TGI [3]: > 100 µM
- TGI [4]: > 100 µM
- TGI [5]: > 100 µM
- TGI [6]: > 100 µM
- TGI [7]: > 100 µM
- TGI [8]: > 100 µM
- TGI [9]: > 100 µM
- TGI [10]: > 100 µM
- TGI [11]: > 100 µM
- TGI [12]: > 100 µM
- TGI [13]: > 100 µM
- TGI [14]: > 100 µM
- TGI [15]: > 100 µM
- TGI [16]: > 100 µM
- TGI [17]: > 100 µM
- TGI [18]: > 100 µM
- TGI [19]: > 100 µM
- TGI [20]: > 100 µM
- TGI [21]: > 100 µM
- TGI [22]: > 100 µM
- TGI [23]: > 100 µM
- TGI [24]: > 100 µM
- TGI [25]: > 100 µM
- TGI [26]: > 100 µM
- TGI [27]: > 100 µM
- TGI [28]: > 100 µM
- TGI [29]: > 100 µM
- TGI [30]: > 100 µM
- TGI [31]: > 100 µM
- TGI [32]: > 100 µM
- TGI [33]: > 100 µM
- TGI [34]: > 100 µM
- TGI [35]: > 100 µM
- TGI [36]: > 100 µM
- TGI [37]: > 100 µM
- TGI [38]: > 100 µM
- TGI [39]: > 100 µM
- TGI [40]: > 100 µM
- TGI [41]: > 100 µM
- TGI [42]: > 100 µM
- TGI [43]: > 100 µM
- TGI [44]: > 100 µM
- TGI [45]: > 100 µM
- TGI [46]: > 100 µM
- TGI [47]: > 100 µM
- TGI [48]: > 100 µM
- TGI [49]: > 100 µM
- TGI [50]: > 100 µM
- TGI [51]: > 100 µM
- TGI [52]: > 100 µM
- TGI [53]: > 100 µM
- TGI [54]: > 100 µM
- TGI [55]: > 100 µM
- TGI [56]: > 100 µM

Compound: CCOC(=O)[C@@H]1[C@@H](c2ccccc2)N(C)O[C@@]1(c1ccccc1)C(F)(F)F
- TGI [1]: > 100 µM
- TGI [2]: > 100 µM
- TGI [3]: > 100 µM
- TGI [4]: > 100 µM
- TGI [5]: > 100 µM
- TGI [6]: > 100 µM
- TGI [7]: > 100 µM
- TGI [8]: > 100 µM
- TGI [9]: > 100 µM
- TGI [13]: > 100 µM
- TGI [14]: > 100 µM
- TGI [15]: > 100 µM
- TGI [16]: > 100 µM
- TGI [17]: > 100 µM
- TGI [18]: > 100 µM
- TGI [19]: > 100 µM
- TGI [20]: > 100 µM
- TGI [21]: > 100 µM
- TGI [23]: > 100 µM
- TGI [24]: > 100 µM
- TGI [25]: > 100 µM
- TGI [26]: > 100 µM
- TGI [27]: > 100 µM
- TGI [28]: > 100 µM
- TGI [57]: > 100 µM
- TGI [29]: > 100 µM
- TGI [30]: > 100 µM
- TGI [31]: > 100 µM
- TGI [32]: 72.3 µM
- TGI [34]: > 100 µM
- TGI [36]: > 100 µM
- TGI [38]: > 100 µM
- TGI [40]: > 100 µM
- TGI [41]: > 100 µM
- TGI [42]: > 100 µM
- TGI [43]: > 100 µM
- TGI [44]: > 100 µM
- TGI [45]: > 100 µM
- TGI [46]: > 100 µM
- TGI [47]: > 100 µM
- TGI [58]: > 100 µM
- TGI [48]: > 100 µM
- TGI [49]: > 100 µM
- TGI [59]: > 100 µM
- TGI [50]: > 100 µM
- TGI [51]: > 100 µM
- TGI [52]: > 100 µM
- TGI [53]: 60.7 µM
- TGI [54]: > 100 µM
- TGI [55]: > 100 µM
- TGI [56]: > 100 µM

Compound: Cc1ccc(Sc2ccccc2C23OC(C)(C4C(=O)N(c5ccccc5)C(=O)C42)N(C)C3=O)cc1 (stereo not given)
- TGI [1]: > 100 µM
- TGI [2]: > 100 µM
- TGI [3]: > 100 µM
- TGI [4]: > 100 µM
- TGI [5]: > 100 µM
- TGI [6]: > 100 µM
- TGI [7]: > 100 µM
- TGI [8]: > 100 µM
- TGI [9]: > 100 µM
- TGI [10]: > 100 µM
- TGI [12]: > 100 µM
- TGI [13]: > 100 µM
- TGI [14]: > 100 µM
- TGI [15]: > 100 µM
- TGI [16]: > 100 µM
- TGI [17]: > 100 µM
- TGI [18]: > 100 µM
- TGI [19]: > 100 µM
- TGI [20]: > 100 µM
- TGI [21]: > 100 µM
- TGI [22]: > 100 µM
- TGI [23]: > 100 µM
- TGI [24]: > 100 µM
- TGI [25]: > 100 µM
- TGI [26]: > 100 µM
- TGI [27]: > 100 µM
- TGI [28]: > 100 µM
- TGI [57]: > 100 µM
- TGI [29]: > 100 µM
- TGI [30]: > 100 µM
- TGI [31]: > 100 µM
- TGI [32]: > 100 µM
- TGI [33]: > 100 µM
- TGI [34]: > 100 µM
- TGI [35]: > 100 µM
- TGI [36]: > 100 µM
- TGI [38]: > 100 µM
- TGI [39]: > 100 µM
- TGI [41]: > 100 µM
- TGI [42]: > 100 µM
- TGI [43]: > 100 µM
- TGI [44]: > 100 µM
- TGI [45]: > 100 µM
- TGI [46]: > 100 µM
- TGI [47]: > 100 µM
- TGI [58]: > 100 µM
- TGI [48]: > 100 µM
- TGI [49]: > 100 µM
- TGI [59]: > 100 µM
- TGI [50]: > 100 µM
- TGI [51]: > 100 µM
- TGI [53]: > 100 µM
- TGI [54]: > 100 µM
- TGI [55]: > 100 µM
- TGI [56]: > 100 µM

Compound: O=c1[nH]c2c(c(=O)[nH]1)SC(c1ccccc1)C2 (stereo not given)
- TGI [1]: > 100 µM
- TGI [2]: > 100 µM
- TGI [3]: > 100 µM
- TGI [5]: > 100 µM
- TGI [6]: > 100 µM
- TGI [7]: > 100 µM
- TGI [8]: > 100 µM
- TGI [9]: > 100 µM
- TGI [10]: > 100 µM
- TGI [11]: > 100 µM
- TGI [13]: > 100 µM
- TGI [14]: > 100 µM
- TGI [15]: > 100 µM
- TGI [17]: > 100 µM
- TGI [18]: > 100 µM
- TGI [19]: > 100 µM
- TGI [20]: > 100 µM
- TGI [21]: > 100 µM
- TGI [22]: > 100 µM
- TGI [23]: > 100 µM
- TGI [24]: > 100 µM
- TGI [25]: > 100 µM
- TGI [26]: > 100 µM
- TGI [27]: > 100 µM
- TGI [28]: > 100 µM
- TGI [29]: > 100 µM
- TGI [30]: > 100 µM
- TGI [31]: > 100 µM
- TGI [32]: > 100 µM
- TGI [33]: > 100 µM
- TGI [34]: > 100 µM
- TGI [35]: > 100 µM
- TGI [36]: > 100 µM
- TGI [37]: > 100 µM
- TGI [38]: > 100 µM
- TGI [39]: > 100 µM
- TGI [40]: > 100 µM
- TGI [41]: > 100 µM
- TGI [42]: > 100 µM
- TGI [43]: > 100 µM
- TGI [44]: > 100 µM
- TGI [45]: > 100 µM
- TGI [46]: > 100 µM
- TGI [47]: > 100 µM
- TGI [48]: > 100 µM
- TGI [49]: > 100 µM
- TGI [59]: > 100 µM
- TGI [50]: > 100 µM
- TGI [51]: > 100 µM
- TGI [52]: > 100 µM
- TGI [53]: > 100 µM
- TGI [55]: > 100 µM
- TGI [56]: > 100 µM
